# Measured values reported in ChEMBL document CHEMBL5104131, “Pyrimidine-conjugated fluoroquinolones as new potential broad-spectrum antibacterial agents” (Bioorg Med Chem Lett, 2022).
# Legend:
# Staphylococcus aureus [1] = assay: Antibacterial activity against methicillin-resistant Staphylococcus aureus N315 assessed as bacterial growth inhibition by serial dilution method; format: functional
# Enterococcus faecalis = assay: Antibacterial activity against Enterococcus faecalis assessed as bacterial growth inhibition by serial dilution method; format: functional
# Staphylococcus aureus [2] = assay: Antibacterial activity against Staphylococcus aureus assessed as bacterial growth inhibition by serial dilution method; format: functional
# Staphylococcus aureus [3] = assay: Antibacterial activity against Staphylococcus aureus ATCC 25923 assessed as bacterial growth inhibition by serial dilution method; format: functional
# Staphylococcus aureus [4] = assay: Antibacterial activity against Staphylococcus aureus ATCC 29213 assessed as bacterial growth inhibition by serial dilution method; format: functional
# Klebsiella pneumoniae = assay: Antibacterial activity against Klebsiella pneumoniae assessed as bacterial growth inhibition by serial dilution method; format: functional
# Escherichia coli [5] = assay: Antibacterial activity against Escherichia coli assessed as bacterial growth inhibition by serial dilution method; format: functional
# Escherichia coli [6] = assay: Antibacterial activity against Escherichia coli ATCC 25922 assessed as bacterial growth inhibition by serial dilution method; format: functional
# Pseudomonas aeruginosa [7] = assay: Antibacterial activity against Pseudomonas aeruginosa assessed as bacterial growth inhibition by serial dilution method; format: functional
# Pseudomonas aeruginosa [8] = assay: Antibacterial activity against Pseudomonas aeruginosa ATCC 27853 assessed as bacterial growth inhibition by serial dilution method; format: functional
# Acinetobacter baumannii = assay: Antibacterial activity against Acinetobacter baumannii assessed as bacterial growth inhibition by serial dilution method; format: functional
# Aspergillus fumigatus = assay: Antifungal activity against Aspergillus fumigatus assessed as inhibition of fungal growth; format: functional
# Candida tropicalis = assay: Antifungal activity against Candida tropicalis assessed as inhibition of fungal growth; format: functional
# Staphylococcus aureus [9] = assay: Potency index, ratio of norfloxacin MIC to test compound MIC for antibacterial activity against methicillin-resistant Staphylococcus aureus N315 assessed as bacterial growth inhibition by serial dilution method; format: functional
# Staphylococcus aureus [10] = assay: Potency index, ratio of ciprofloxacin MIC to test compound MIC for antibacterial activity against methicillin-resistant Staphylococcus aureus N315 assessed as bacterial growth inhibition by serial dilution method; format: functional
# [11] = Cytotoxicity against human HaCaT cells assessed as cell viability at 12.5 ug/ml by CCK-8 assay relative to control; format: toxicity, cell-based; conditions: at 12.5 µg/mL, read-out: Activity
# [12] = Cytotoxicity against human HaCaT cells assessed as cell viability at 50 ug/ml by CCK-8 assay relative to control; format: toxicity, cell-based; conditions: at 50 µg/mL, read-out: Activity
structure (smiles),measurement,setting,value
CCn1cc(C(=O)O)c(=O)c2cc(F)c(N3CCNCC3)cc21 [NORFLOXACIN],MIC,Staphylococcus aureus [1],8 µg/mL
same,MIC,Enterococcus faecalis,4 µg/mL
same,MIC,Staphylococcus aureus [2],4 µg/mL
same,MIC,Staphylococcus aureus [3],2 µg/mL
same,MIC,Staphylococcus aureus [4],4 µg/mL
same,MIC,Klebsiella pneumoniae,4 µg/mL
same,MIC,Escherichia coli [5],8 µg/mL
same,MIC,Escherichia coli [6],8 µg/mL
same,MIC,Pseudomonas aeruginosa [7],4 µg/mL
same,MIC,Pseudomonas aeruginosa [8],4 µg/mL
same,MIC,Acinetobacter baumannii,2 µg/mL
OC(Cn1cncn1)(Cn1cncn1)c1ccc(F)cc1F [FLUCONAZOLE],MIC,Aspergillus fumigatus,256 µg/mL
Cc1cnc(N2CCN(c3cc4c(cc3F)c(=O)c(C(=O)O)cn4C3CC3)CC2)nc1,MIC,Staphylococcus aureus [1],256 µg/mL
same,MIC,Enterococcus faecalis,4 µg/mL
same,MIC,Staphylococcus aureus [2],128 µg/mL
same,MIC,Staphylococcus aureus [3],2 µg/mL
same,MIC,Staphylococcus aureus [4],64 µg/mL
same,MIC,Klebsiella pneumoniae,> 256 µg/mL
same,MIC,Escherichia coli [5],64 µg/mL
same,MIC,Escherichia coli [6],8 µg/mL
same,MIC,Pseudomonas aeruginosa [7],2 µg/mL
same,MIC,Pseudomonas aeruginosa [8],256 µg/mL
same,MIC,Acinetobacter baumannii,128 µg/mL
CCc1cnc(N2CCN(c3cc4c(cc3F)c(=O)c(C(=O)O)cn4CC)CC2)nc1,MIC,Staphylococcus aureus [1],2 µg/mL
same,MIC,Enterococcus faecalis,2 µg/mL
same,MIC,Staphylococcus aureus [2],8 µg/mL
same,MIC,Staphylococcus aureus [3],2 µg/mL
same,MIC,Staphylococcus aureus [4],64 µg/mL
same,MIC,Klebsiella pneumoniae,2 µg/mL
same,MIC,Escherichia coli [5],16 µg/mL
same,MIC,Escherichia coli [6],1 µg/mL
same,MIC,Pseudomonas aeruginosa [7],2 µg/mL
same,MIC,Pseudomonas aeruginosa [8],128 µg/mL
same,MIC,Acinetobacter baumannii,128 µg/mL
CCn1cc(C(=O)O)c(=O)c2cc(F)c(N3CCN(c4ncccn4)CC3)cc21,MIC,Staphylococcus aureus [1],2 µg/mL
same,MIC,Enterococcus faecalis,8 µg/mL
same,MIC,Staphylococcus aureus [2],64 µg/mL
same,MIC,Staphylococcus aureus [3],8 µg/mL
same,MIC,Staphylococcus aureus [4],32 µg/mL
same,MIC,Klebsiella pneumoniae,4 µg/mL
same,MIC,Escherichia coli [5],16 µg/mL
same,MIC,Escherichia coli [6],64 µg/mL
same,MIC,Pseudomonas aeruginosa [7],16 µg/mL
same,MIC,Pseudomonas aeruginosa [8],128 µg/mL
same,MIC,Acinetobacter baumannii,64 µg/mL
same,MIC,Aspergillus fumigatus,2 µg/mL
Cc1ccnc(N2CCN(c3cc4c(cc3F)c(=O)c(C(=O)O)cn4C3CC3)CC2)n1,MIC,Staphylococcus aureus [1],64 µg/mL
same,MIC,Enterococcus faecalis,64 µg/mL
same,MIC,Staphylococcus aureus [2],256 µg/mL
same,MIC,Staphylococcus aureus [3],4 µg/mL
same,MIC,Staphylococcus aureus [4],32 µg/mL
same,MIC,Klebsiella pneumoniae,64 µg/mL
same,MIC,Escherichia coli [5],64 µg/mL
same,MIC,Escherichia coli [6],8 µg/mL
same,MIC,Pseudomonas aeruginosa [7],64 µg/mL
same,MIC,Pseudomonas aeruginosa [8],64 µg/mL
same,MIC,Acinetobacter baumannii,2 µg/mL
CCn1cc(C(=O)O)c(=O)c2cc(F)c(N3CCN(c4nccc(C)n4)CC3)cc21,MIC,Staphylococcus aureus [1],32 µg/mL
same,MIC,Enterococcus faecalis,1 µg/mL
same,MIC,Staphylococcus aureus [2],4 µg/mL
same,MIC,Staphylococcus aureus [3],4 µg/mL
same,MIC,Staphylococcus aureus [4],16 µg/mL
same,MIC,Klebsiella pneumoniae,4 µg/mL
same,MIC,Escherichia coli [5],64 µg/mL
same,MIC,Escherichia coli [6],1 µg/mL
same,MIC,Pseudomonas aeruginosa [7],128 µg/mL
same,MIC,Pseudomonas aeruginosa [8],16 µg/mL
same,MIC,Acinetobacter baumannii,256 µg/mL
O=C(O)c1cn(C2CC2)c2cc(N3CCNCC3)c(F)cc2c1=O [CIPROFLOXACIN],MIC,Staphylococcus aureus [1],2 µg/mL
same,MIC,Enterococcus faecalis,1 µg/mL
same,MIC,Staphylococcus aureus [2],2 µg/mL
same,MIC,Staphylococcus aureus [3],2 µg/mL
same,MIC,Staphylococcus aureus [4],0.5 µg/mL
same,MIC,Klebsiella pneumoniae,2 µg/mL
same,MIC,Pseudomonas aeruginosa [8],1 µg/mL
CCn1cc(C(=O)O)c(=O)c2cc(F)c(N3CCN(c4nccc(C(F)(F)F)n4)CC3)cc21,MIC,Staphylococcus aureus [1],> 256 µg/mL
same,MIC,Enterococcus faecalis,64 µg/mL
same,MIC,Staphylococcus aureus [2],> 256 µg/mL
same,MIC,Staphylococcus aureus [3],256 µg/mL
same,MIC,Staphylococcus aureus [4],128 µg/mL
same,MIC,Klebsiella pneumoniae,128 µg/mL
same,MIC,Escherichia coli [5],> 256 µg/mL
same,MIC,Escherichia coli [6],256 µg/mL
same,MIC,Pseudomonas aeruginosa [7],128 µg/mL
same,MIC,Pseudomonas aeruginosa [8],> 256 µg/mL
same,MIC,Acinetobacter baumannii,128 µg/mL
CCn1cc(C(=O)O)c(=O)c2cc(F)c(N3CCN(c4ncc(OC)cn4)CC3)cc21,MIC,Staphylococcus aureus [1],1 µg/mL
same,MIC,Enterococcus faecalis,1 µg/mL
same,MIC,Staphylococcus aureus [2],2 µg/mL
same,MIC,Staphylococcus aureus [3],32 µg/mL
same,MIC,Staphylococcus aureus [4],8 µg/mL
same,MIC,Klebsiella pneumoniae,64 µg/mL
same,MIC,Escherichia coli [5],64 µg/mL
same,MIC,Escherichia coli [6],2 µg/mL
same,MIC,Pseudomonas aeruginosa [7],32 µg/mL
same,MIC,Pseudomonas aeruginosa [8],128 µg/mL
same,MIC,Acinetobacter baumannii,128 µg/mL
same,MIC,Aspergillus fumigatus,2 µg/mL
CCn1cc(C(=O)O)c(=O)c2cc(F)c(N3CCN(c4ncc(F)cn4)CC3)cc21,MIC,Staphylococcus aureus [1],64 µg/mL
same,MIC,Enterococcus faecalis,4 µg/mL
same,MIC,Staphylococcus aureus [2],4 µg/mL
same,MIC,Staphylococcus aureus [3],16 µg/mL
same,MIC,Staphylococcus aureus [4],16 µg/mL
same,MIC,Klebsiella pneumoniae,128 µg/mL
same,MIC,Escherichia coli [5],16 µg/mL
same,MIC,Escherichia coli [6],128 µg/mL
same,MIC,Pseudomonas aeruginosa [7],32 µg/mL
same,MIC,Pseudomonas aeruginosa [8],256 µg/mL
same,MIC,Acinetobacter baumannii,> 256 µg/mL
CCn1cc(C(=O)O)c(=O)c2cc(F)c(N3CCN(c4ncc(C)cn4)CC3)cc21,MIC,Staphylococcus aureus [1],8 µg/mL
same,MIC,Enterococcus faecalis,2 µg/mL
same,MIC,Staphylococcus aureus [2],4 µg/mL
same,MIC,Staphylococcus aureus [3],64 µg/mL
same,MIC,Staphylococcus aureus [4],4 µg/mL
same,MIC,Klebsiella pneumoniae,2 µg/mL
same,MIC,Escherichia coli [5],16 µg/mL
same,MIC,Escherichia coli [6],2 µg/mL
same,MIC,Pseudomonas aeruginosa [7],4 µg/mL
same,MIC,Pseudomonas aeruginosa [8],128 µg/mL
same,MIC,Acinetobacter baumannii,128 µg/mL
same,MIC,Aspergillus fumigatus,2 µg/mL
CCc1cnc(N2CCN(c3cc4c(cc3F)c(=O)c(C(=O)O)cn4C3CC3)CC2)nc1,MIC,Staphylococcus aureus [1],128 µg/mL
same,MIC,Enterococcus faecalis,64 µg/mL
same,MIC,Staphylococcus aureus [2],1 µg/mL
same,MIC,Staphylococcus aureus [3],8 µg/mL
same,MIC,Staphylococcus aureus [4],64 µg/mL
same,MIC,Klebsiella pneumoniae,256 µg/mL
same,MIC,Escherichia coli [5],8 µg/mL
same,MIC,Escherichia coli [6],4 µg/mL
same,MIC,Pseudomonas aeruginosa [7],4 µg/mL
same,MIC,Pseudomonas aeruginosa [8],64 µg/mL
same,MIC,Acinetobacter baumannii,64 µg/mL
same,MIC,Candida tropicalis,2 µg/mL
O=C(O)c1cn(C2CC2)c2cc(N3CCN(c4ncc(F)cn4)CC3)c(F)cc2c1=O,MIC,Staphylococcus aureus [1],1 µg/mL
same,MIC,Enterococcus faecalis,8 µg/mL
same,MIC,Staphylococcus aureus [2],8 µg/mL
same,MIC,Staphylococcus aureus [3],8 µg/mL
same,MIC,Staphylococcus aureus [4],32 µg/mL
same,MIC,Klebsiella pneumoniae,128 µg/mL
same,MIC,Escherichia coli [5],128 µg/mL
same,MIC,Escherichia coli [6],8 µg/mL
same,MIC,Pseudomonas aeruginosa [7],64 µg/mL
same,MIC,Pseudomonas aeruginosa [8],256 µg/mL
same,MIC,Acinetobacter baumannii,> 256 µg/mL
same,Ratio,Staphylococcus aureus [9],8
same,Ratio,Staphylococcus aureus [10],2
O=C(O)c1cn(C2CC2)c2cc(N3CCN(c4ncc(Br)cn4)CC3)c(F)cc2c1=O,MIC,Staphylococcus aureus [1],128 µg/mL
same,MIC,Enterococcus faecalis,128 µg/mL
same,MIC,Staphylococcus aureus [2],16 µg/mL
same,MIC,Staphylococcus aureus [3],16 µg/mL
same,MIC,Staphylococcus aureus [4],8 µg/mL
same,MIC,Klebsiella pneumoniae,128 µg/mL
same,MIC,Escherichia coli [5],64 µg/mL
same,MIC,Escherichia coli [6],128 µg/mL
same,MIC,Pseudomonas aeruginosa [7],16 µg/mL
same,MIC,Pseudomonas aeruginosa [8],32 µg/mL
same,MIC,Acinetobacter baumannii,32 µg/mL
O=C(O)c1cn(C2CC2)c2cc(N3CCN(c4nccc(C(F)(F)F)n4)CC3)c(F)cc2c1=O,MIC,Staphylococcus aureus [1],64 µg/mL
same,MIC,Enterococcus faecalis,8 µg/mL
same,MIC,Staphylococcus aureus [2],128 µg/mL
same,MIC,Staphylococcus aureus [3],128 µg/mL
same,MIC,Staphylococcus aureus [4],64 µg/mL
same,MIC,Klebsiella pneumoniae,128 µg/mL
same,MIC,Escherichia coli [5],128 µg/mL
same,MIC,Escherichia coli [6],32 µg/mL
same,MIC,Pseudomonas aeruginosa [7],64 µg/mL
same,MIC,Pseudomonas aeruginosa [8],128 µg/mL
same,MIC,Acinetobacter baumannii,> 256 µg/mL
CCn1cc(C(=O)O)c(=O)c2cc(F)c(N3CCN(c4ncc(Br)cn4)CC3)cc21,MIC,Staphylococcus aureus [1],128 µg/mL
same,MIC,Enterococcus faecalis,64 µg/mL
same,MIC,Staphylococcus aureus [2],8 µg/mL
same,MIC,Staphylococcus aureus [3],64 µg/mL
same,MIC,Staphylococcus aureus [4],64 µg/mL
same,MIC,Klebsiella pneumoniae,256 µg/mL
same,MIC,Escherichia coli [5],64 µg/mL
same,MIC,Escherichia coli [6],128 µg/mL
same,MIC,Pseudomonas aeruginosa [7],8 µg/mL
same,MIC,Pseudomonas aeruginosa [8],64 µg/mL
same,MIC,Acinetobacter baumannii,64 µg/mL
O=C(O)c1cn(C2CC2)c2cc(N3CCN(c4ncccn4)CC3)c(F)cc2c1=O,MIC,Staphylococcus aureus [1],16 µg/mL
same,MIC,Enterococcus faecalis,2 µg/mL
same,MIC,Staphylococcus aureus [2],4 µg/mL
same,MIC,Staphylococcus aureus [3],64 µg/mL
same,MIC,Staphylococcus aureus [4],32 µg/mL
same,MIC,Klebsiella pneumoniae,64 µg/mL
same,MIC,Escherichia coli [5],8 µg/mL
same,MIC,Escherichia coli [6],1 µg/mL
same,MIC,Pseudomonas aeruginosa [7],8 µg/mL
same,MIC,Pseudomonas aeruginosa [8],32 µg/mL
same,MIC,Acinetobacter baumannii,> 256 µg/mL
same,MIC,Aspergillus fumigatus,1 µg/mL
same,viability at 12.5 ug/ml,[11],> 90%
same,viability at 50 ug/ml,[12],70%
